This passage reports IC50 results from ChEMBL document CHEMBL1201862, “PubChem BioAssay data set” (2004).

The IC50 is the concentration at which inhibition is half-maximal.

The assay concerns the target Envelope glycoprotein gp160 (Human immunodeficiency virus 1, UniProt Q6QLK5). The assay can be described thus: cell-free HIV fusion peptide-binding blockers – biochemical, uHTS, fluorescence dequenching, […] (AID 1986).

The source made the active and inactive calls. No stated cut-off is given here; in the data, actives have a measured IC50 and inactives only a lower limit.

Envelope glycoprotein gp160, sequence (Q6QLK5 whole entry, the tested form may be a part): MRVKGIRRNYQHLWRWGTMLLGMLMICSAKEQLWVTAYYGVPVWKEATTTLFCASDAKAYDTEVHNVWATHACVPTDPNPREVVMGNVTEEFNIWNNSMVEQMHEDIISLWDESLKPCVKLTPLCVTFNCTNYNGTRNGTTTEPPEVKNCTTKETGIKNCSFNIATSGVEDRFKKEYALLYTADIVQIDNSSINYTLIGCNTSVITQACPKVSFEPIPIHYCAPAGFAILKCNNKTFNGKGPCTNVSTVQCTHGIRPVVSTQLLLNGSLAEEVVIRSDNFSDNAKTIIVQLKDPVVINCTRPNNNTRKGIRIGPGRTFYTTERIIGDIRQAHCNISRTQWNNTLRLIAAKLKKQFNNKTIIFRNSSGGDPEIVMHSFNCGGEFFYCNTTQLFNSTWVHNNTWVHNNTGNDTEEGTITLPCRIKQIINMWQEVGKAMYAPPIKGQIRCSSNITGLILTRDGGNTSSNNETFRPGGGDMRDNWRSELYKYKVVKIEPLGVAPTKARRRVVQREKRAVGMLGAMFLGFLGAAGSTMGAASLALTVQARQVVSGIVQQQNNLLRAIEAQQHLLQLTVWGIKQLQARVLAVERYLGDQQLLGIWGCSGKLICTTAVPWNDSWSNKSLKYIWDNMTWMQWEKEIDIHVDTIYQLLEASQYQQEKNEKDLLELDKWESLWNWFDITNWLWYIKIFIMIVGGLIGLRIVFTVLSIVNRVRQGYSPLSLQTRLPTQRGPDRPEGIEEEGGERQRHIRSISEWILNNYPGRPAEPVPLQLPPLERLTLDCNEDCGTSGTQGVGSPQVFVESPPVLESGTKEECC

`CCOC(=O)C1=C(C)N=c2s/c(=C\c3ccc(OCC(=O)O)c(OC)c3)c(=O)n2C1c1ccc(OC)cc1` (stereo unspecified): the IC50 is 23.9 µM (active).
